Blank lines part the entries; values can stand above or below the compound they belong to.
Tests used:
Assay type in all cases: ADME; call rule not given here
Cytochrome P450 2B6 [1] = target: T1, Cytochrome P450 2B6 (Homo sapiens, UniProt P20813); test: Activity at CYP2B6 (unknown origin) expressed Escherichia coli C41 DE3 cells assessed as enzyme-mediated 4-hydroxytamoxifen quinone methide metabolite formation by measuring reactive metabolite adduct with GSHEE at 90 uM by LC-MS/MS analysis
T1 sequence (P20813 whole entry): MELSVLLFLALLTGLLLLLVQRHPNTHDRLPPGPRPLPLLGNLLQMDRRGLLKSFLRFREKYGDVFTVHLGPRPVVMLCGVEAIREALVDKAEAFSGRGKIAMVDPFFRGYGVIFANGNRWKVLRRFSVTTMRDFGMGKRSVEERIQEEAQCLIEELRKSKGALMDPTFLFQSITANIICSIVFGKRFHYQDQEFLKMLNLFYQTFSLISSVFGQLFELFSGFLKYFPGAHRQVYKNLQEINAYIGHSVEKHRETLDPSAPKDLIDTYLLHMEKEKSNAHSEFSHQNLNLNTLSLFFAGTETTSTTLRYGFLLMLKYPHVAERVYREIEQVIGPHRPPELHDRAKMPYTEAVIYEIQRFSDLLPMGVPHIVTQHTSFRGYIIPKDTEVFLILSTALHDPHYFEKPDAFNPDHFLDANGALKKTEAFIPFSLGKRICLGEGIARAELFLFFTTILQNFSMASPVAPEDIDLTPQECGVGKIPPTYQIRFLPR

Cytochrome P450 2B6 [2] = target: T1, Cytochrome P450 2B6; test: Activity at CYP2B6 (unknown origin) expressed Escherichia coli C41 DE3 cells assessed as compound formation by measuring retention time treated with 4-hydroxytamoxifen at 90 uM by LC-MS/MS analysis
[3] = Drug metabolism in human liver microsomes assessed as compound formation by measuring retention time at 90 uM by LC-MS/MS analysis
Cytochrome P450 2B6 [4] = target: T1, Cytochrome P450 2B6; test: Activity at CYP2B6 (unknown origin) expressed Escherichia coli C41 DE3 cells assessed as compound formation by measuring retention time treated with tamoxifen at 60 uM by LC-MS/MS analysis
Cytochrome P450 2B6 [5] = target: T1, Cytochrome P450 2B6; test: Inactivation of CYP2B6 (unknown origin) expressed in Escherichia coli C41 DE3 cells assessed as modified apo-P450 2B6 adduct formation at 60 uM by ESI-LC-MS analysis in presence of NADPH and GSHEE
Cytochrome P450 2B6 [6] = target: T1, Cytochrome P450 2B6; test: Inactivation of CYP2B6 (unknown origin) expressed in Escherichia coli C41 DE3 cells assessed as modified apo-P450 2B6 adduct formation at 60 uM after 10 mins by ESI-LC-MS analysis in presence of NADPH

SMILES: CCC(=C(c1ccc(O)cc1)c1ccc(OCCN(C)C)cc1)c1ccccc1
Retention time (Cytochrome P450 2B6 [1]): 16.9 min

Retention_time (Cytochrome P450 2B6 [2]): 16.9 min
Retention_time [3]: 16.6 min
Retention_time (Cytochrome P450 2B6 [4]): 18.3 min
SMILES: C/C=C(/C(=C1C=CC(=O)C=C1)c1ccc(OCCN(C)C)cc1)c1ccccc1

Activity (Cytochrome P450 2B6 [5]): Active
Activity (Cytochrome P450 2B6 [6]): Active
SMILES: CC/C(=C(\c1ccccc1)c1ccc(OCCN(C)C)cc1)c1ccccc1 [TAMOXIFEN]

Source: ChEMBL document CHEMBL3526156, “Bioactivation of the cancer chemopreventive agent tamoxifen to quinone methides by cytochrome P4502B6 and identification of the modified residue on the apoprotein” (Drug Metab Dispos, 2012)
